Test results reported in patent publication EP0314038A1, “Pyrrolidines” (Byk Gulden Lomberg Chemische Fabrik GmbH, priority 1987, dated 1989).
Where a name gives a salt, the structure may show the parent alone.

Test system: spontan hypertonen Ratte
Assay: antihypertensive effect (systolic blood pressure, tail cuff) in spontaneously hypertensive rats after oral administration
Format: in vivo
Settings: genetically hypertensive rats (SHR/N/Ibm/Bm), N=6; for BP (% Änderung vs. Kontrolle), Mittelwert für Meßzeitpunkte: Stunden nach Gabe (Tage) 2h (1.+4.Tag): 2h after dosing, mean of days 1+4; for BP (% Änderung vs. Kontrolle), Mittelwert für Meßzeitpunkte: Stunden nach Gabe (Tage) 6h (1.-4.Tag): 6h after dosing, mean of days 1-4
Text: Die antihypertensive Wirksamkeit der erfindungsgemäßen Verbindungen kann am Modell der spontan hypertonen Ratte nachgewiesen werden.
Zur Bestimmung der antihypertensiven Wirkung werden die unten aufgeführten Verbindungen in den angegebenen Dosen an vier aufeinander folgenden Tagen an je 6 männlichen Ratten (Stamm SHR/N/Ibm/Bm, 250-350 g) mit genetisch bedingtem Hochdruck (systolischer Blutdruck > 180 mmHg) täglich einmal mittels Schlundsonde verabfolgt. Die Messung des Blutdrucks erfolgt jeweils 6 und gegebenenfalls 2 oder 24 Stunden nach Substanzgabe.
Die Blutdruckmessung wird in einer Wärmekammer bei 36°C vorgenommen, um eine bessere Durchblutung der Schwanzarterie zu erreichen. Hierzu werden die Tiere in perforierte Lochblechkäfige verbracht und 20 - 40 Min. nach Beginn der Aufwärmung gemessen. Zur Messung des systolischen arteriellen Drucks wird eine ringförmige Manschette mit aufblasbarer Gummimembran zur Unterbindung der Durchblutung und ein ringförmiger Piezokristallaufnehmer zur Erfassung der Pulswellen auf den Schwanz aufgeschoben. Nach erfolgter Unterbindung des Blutstroms in der Schwanzarterie wird der Manschettendruck kontinuierlich reduziert. Die Wiederkehr der Pulswellen bei Druckablassen wird automatisch als systolischer Blutdruck erkannt und ausgedruckt (Bühler, R. et al.,: Microprocessor-based automation of blood pressure measurement in the conscious rat. Proceedings of the 4th international symposium on rats with spontaneous hypertension and related studies, Rascher, R. et al. (Eds.), Schattauer Verlag, Stuttgart, New York, 1982, S. 410-413). Pulssignale und Druckverlauf werden zur Auswertung graphisch aufgezeichnet.
Zur Gewöhnung an den Meßvorgang werden die Tiere vor Substanzprüfung 14 Tage trainiert. In der zweiten Trainingswoche werden Blutdruck-Vorwerte erhoben. Tiergruppen, die Substanz erhalten, werden gegen eine Kontrollgruppe geprüft.
In der anscließenden Tabelle werden die untersuchten Verbindungen durch laufende Nummern gekennzeichnet, die mit den jeweiligen Beispielnummern übereinstimmen.
Tabelle I gibt für die Vertreter der erfindungsgemäßen Verbindungen die prozentuale Senkung des Blutdrucks (BP) nach oraler Verabreichung bei der Ratte wieder. Tabelle I

[1] = 25 µmol/kg p.o. once daily on four consecutive days
[2] = 10 µmol/kg p.o. once daily on four consecutive days

CCOC(=O)C1=C(C)NC(C)=C(C(=O)OCCCN2CCCC2Cc2ccc(Cl)cc2)C1c1cccc([N+](=O)[O-])c1 (racemic) [Beispiel 1, 1,4-Dihydro-2,6-dimethyl-4-(±)-(3-nitrophenyl)-pyridin-3,5-dicarbonsäure-3-ethyl-5-{3-[2-(±)-(4-chlorbenzyl)-pyrrolidinyl-1]-propyl}-ester-hydrochlorid]
BP (% Änderung vs. Kontrolle), Mittelwert für Meßzeitpunkte: Stunden nach Gabe (Tage) 2h (1.+4.Tag) [1]: -55,5%
BP (% Änderung vs. Kontrolle), Mittelwert für Meßzeitpunkte: Stunden nach Gabe (Tage) 6h (1.-4.Tag) [1]: -43,5%

COC(=O)C1=C(C)NC(C)=C(C(=O)OCCCN2CCCC2Cc2ccc(Cl)cc2)C1c1cccc([N+](=O)[O-])c1 (single isomer, unassigned) [Beispiel 4, 1,4-Dihydro-2,6-dimethyl-4-(+)-(3-nitrophenyl)-pyridin-3,5-dicarbonsäure-3-methyl-5-{3-[2-(-)-(4-chlorbenzyl)-pyrrolidinyl-1]-propyl}-ester-hydrochlorid]
BP (% Änderung vs. Kontrolle), Mittelwert für Meßzeitpunkte: Stunden nach Gabe (Tage) 2h (1.+4.Tag) [2]: -48%
BP (% Änderung vs. Kontrolle), Mittelwert für Meßzeitpunkte: Stunden nach Gabe (Tage) 6h (1.-4.Tag) [2]: -33%

COC(=O)C1=C(C)NC(C)=C(C(=O)OCCCN2CCCC2Cc2ccc([N+](=O)[O-])cc2)C1c1cccc([N+](=O)[O-])c1 (racemic) [Beispiel 11, 1,4-Dihydro-2,6-dimethyl-4-(+)-(3-nitrophenyl)-pyridin-3,5-dicarbonsäure-3-methyl-5-{3-[2-(±)-(4-nitrobenzyl)-pyrrolidinyl-1]-propyl}-ester-hydrochlorid]
BP (% Änderung vs. Kontrolle), Mittelwert für Meßzeitpunkte: Stunden nach Gabe (Tage) 2h (1.+4.Tag) [1]: -36,5%
BP (% Änderung vs. Kontrolle), Mittelwert für Meßzeitpunkte: Stunden nach Gabe (Tage) 6h (1.-4.Tag) [1]: -25,5%

COC(=O)C1=C(C)NC(C)=C(C(=O)OCCCN2CCCC2Cc2ccc(Cl)cc2)C1c1cccc(Cl)c1Cl (racemic) [Beispiel 8, 1,4-Dihydro-2,6-dimethyl-4-(±)-(2,3-dichlorphenyl)-pyridin-3,5-dicarbonsäure-3-methyl-5-{3-[2-(-)-(4-chlorbenzyl)-pyrrolidinyl-1]-propyl}-ester-hydrochlorid]
BP (% Änderung vs. Kontrolle), Mittelwert für Meßzeitpunkte: Stunden nach Gabe (Tage) 2h (1.+4.Tag) [2]: -39%
BP (% Änderung vs. Kontrolle), Mittelwert für Meßzeitpunkte: Stunden nach Gabe (Tage) 6h (1.-4.Tag) [2]: -25,5%

COC(=O)C1=C(C)NC(C)=C(C(=O)OCCCN2CCCC2Cc2ccc(Cl)cc2)C1c1cccc([N+](=O)[O-])c1 (racemic) [Beispiel 2, 1,4-Dihydro-2,6-dimethyl-4-(±)-(3-nitrophenyl)-pyridin-3,5-dicarbonsäure-3-methyl-5-{3-[2-(-)-(4-chlorbenzyl)-pyrrolidinyl-1]-propyl}-ester-hydrochlorid]
BP (% Änderung vs. Kontrolle), Mittelwert für Meßzeitpunkte: Stunden nach Gabe (Tage) 2h (1.+4.Tag) [1]: -47%
BP (% Änderung vs. Kontrolle), Mittelwert für Meßzeitpunkte: Stunden nach Gabe (Tage) 6h (1.-4.Tag) [1]: -34%
BP (% Änderung vs. Kontrolle), Mittelwert für Meßzeitpunkte: Stunden nach Gabe (Tage) 24h (1.+3.Tag) (25 µmol/kg p.o. once daily on four consecutive days, 24h after dosing, mean of days 1+3): -13,5%
